Measured values reported in ChEMBL document CHEMBL5131560, “Discovery of Heteroaryl Urea Isosteres for Formyl Peptide Receptor 2 Agonists” (ACS Med Chem Lett, 2022).

How the values were obtained:
[1] = target: T1, N-formyl peptide receptor 2 (Homo sapiens, UniProt P25090); assay: Agonist activity at human FPR2 overexpressing CHO cells assessed as reduction in intracellular cAMP level incubated for 30 mins by HTRF assay; type: functional, cell-based
T1 sequence (P25090 whole entry): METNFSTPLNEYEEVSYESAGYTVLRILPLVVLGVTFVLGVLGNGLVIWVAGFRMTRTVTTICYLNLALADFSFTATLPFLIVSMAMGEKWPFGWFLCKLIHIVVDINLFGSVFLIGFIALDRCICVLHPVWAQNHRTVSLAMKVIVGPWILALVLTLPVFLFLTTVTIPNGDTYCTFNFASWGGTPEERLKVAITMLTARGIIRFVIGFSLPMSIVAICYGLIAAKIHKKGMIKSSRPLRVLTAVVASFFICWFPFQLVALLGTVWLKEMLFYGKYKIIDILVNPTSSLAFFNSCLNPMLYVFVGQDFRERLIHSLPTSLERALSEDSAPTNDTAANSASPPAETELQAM

Peritoneal macrophage = assay: Induction of phagocytosis in mouse peritoneal macrophages assessed as increase in FITC signal preincubated with compound for 15 mins followed by zymosan addition and measured after 1 hr by Trypan Blue based FITC analysis
[2] = Protein binding in human assessed as free fraction; type: ADME
[3] = Permeability of the compound at pH 5.5 by PAMPA assay; type: ADME; conditions: read-out: permeability
[4] = AUC (0 to infinity) in C57BL6 mouse at 3 mg/kg, po and measured upto 24 hrs by LC-MS/MS analysis; type: ADME, organism-based; design: dose 3 mg/kg, time < 24 hrs, route po; conditions: in vivo

COc1cc(F)c([C@@H]2CNC(=O)[C@H]2c2nc3c(Cl)cccc3[nH]2)c(F)c1
EC50 [1]: > 10000 nM

COc1cc(F)c([C@@H]2CNC(=O)[C@H]2Nc2noc(-c3ccc(Cl)cc3)n2)c(F)c1
EC50 [1]: 2500 nM

COc1cc(F)c([C@@H]2CNC(=O)[C@H]2Nc2nnc(-c3cccc(Cl)c3)o2)c(F)c1
EC50 [1]: > 10000 nM

COc1cc(F)c([C@@H]2CNC(=O)[C@H]2c2nc3cc(Cl)cnc3[nH]2)c(F)c1
EC50 [1]: 40 nM

COc1ccc([C@@H]2CNC(=O)[C@H]2Nc2nnc(-c3ccc(Cl)cc3)o2)c(F)c1
EC50 [1]: 40 nM

COc1cc(F)c([C@@H]2CNC(=O)[C@H]2NC(=O)Nc2ccccc2)c(F)c1 [BMS-986235]
EC50 (Peritoneal macrophage): < 1 nM | fraction unbound [2]: 0.127 | Papp [3]: 44 ×10⁻⁶ cm/s | AUC(0-inf) [4]: 5.6 µM·h

COc1ccc([C@@H]2CNC(=O)[C@H]2Nc2nnc(-c3ccc(Cl)cc3)o2)cc1
EC50 [1]: 160 nM

COc1cc(F)c([C@@H]2CNC(=O)[C@H]2c2nc3ccccc3[nH]2)c(F)c1
EC50 [1]: 680 nM

COc1cc(F)c([C@@H]2CNC(=O)[C@H]2Nc2cc(-c3ccc(Cl)cc3)no2)c(F)c1
EC50 [1]: 2200 nM

COc1cc(F)c([C@@H]2CNC(=O)[C@H]2Nc2nnc(-c3ccccc3)o2)c(F)c1
EC50 [1]: 250 nM

COc1cc(F)c([C@@H]2CNC(=O)[C@H]2Nc2nnc(-c3ccc(Cl)cc3)s2)c(F)c1
EC50 [1]: 37 nM

COc1cc(F)c([C@@H]2CNC(=O)[C@H]2Nc2nnc(-c3ccccc3Cl)o2)c(F)c1
EC50 [1]: > 10000 nM

COc1cc(F)c([C@@H]2CNC(=O)[C@H]2Nc2nnc(-c3ccc(Cl)cc3)o2)c(F)c1
EC50 [1]: 32 nM | fraction unbound [2]: 0.015 | Papp [3]: 97 ×10⁻⁶ cm/s | AUC(0-inf) [4]: 8.4 µM·h

COc1cc(F)c([C@@H]2CNC(=O)[C@H]2Nc2cc(-c3ccc(Cl)cc3)[nH]n2)c(F)c1
EC50 [1]: > 10000 nM

COc1cc(F)c([C@@H]2CNC(=O)[C@H]2Nc2nc3ccccc3[nH]2)c(F)c1
EC50 [1]: 1300 nM

COc1cc(F)c([C@@H]2CNC(=O)[C@H]2Nc2nc(-c3ccc(Cl)cc3)no2)c(F)c1
EC50 [1]: 3500 nM

COc1cc(F)c([C@@H]2CNC(=O)[C@H]2Nc2nnc(-c3ccc(OC(F)(F)F)cc3)o2)c(F)c1
EC50 [1]: 53 nM

COc1ccc(-c2nnc(N[C@@H]3C(=O)NC[C@H]3c3c(F)cc(OC)cc3F)o2)cc1
EC50 [1]: 3700 nM

COc1cc(F)c([C@@H]2CNC(=O)[C@H]2Nc2nnc(-c3ccc(Cl)cc3F)o2)c(F)c1
EC50 [1]: 840 nM

COc1cc(F)c([C@@H]2CNC(=O)[C@H]2Nc2ncc(-c3ccc(Cl)cc3)o2)c(F)c1
EC50 [1]: 250 nM

COc1cc(F)c([C@@H]2CNC(=O)[C@H]2Nc2cc(-c3ccc(Cl)cc3)on2)c(F)c1
fraction unbound [2]: 0.005 | Papp [3]: 110 ×10⁻⁶ cm/s | AUC(0-inf) [4]: 15 µM·h

COc1cc(F)c([C@@H]2CNC(=O)[C@H]2c2nc3cc(Cl)ccc3[nH]2)c(F)c1
EC50 [1]: 110 nM

COc1cc(F)c([C@@H]2CNC(=O)[C@H]2Nc2cc(-c3ccc(Cl)cc3)n(C)n2)c(F)c1
EC50 [1]: > 10000 nM

COc1cc(F)c([C@@H]2CNC(=O)[C@H]2c2nc3cc(OC)ccc3[nH]2)c(F)c1
EC50 [1]: > 5000 nM

COc1cc(F)c([C@@H]2CNC(=O)[C@H]2c2nc3nc(Cl)ccc3[nH]2)c(F)c1
EC50 [1]: 2300 nM
